{"source": "patent US20150250713A1", "about": "“Pharmaceutical Composition” (CIPLA LIMITED, priority 2012, published 2015)", "assay": "Moisture uptake of HFA propellants", "type": "physicochemical", "conditions": "ratio versus HFA-227 (measured values)", "data": [{"smiles": "FCC(F)(F)F", "note": "[HFA-134 (a), 1,1,1,2-tetrafluoroethane]", "values": [{"measurement": "moisture uptake compared to HFA-227", "value": "six times higher"}]}]}
